Where a name gives a salt, the structure may show the parent alone.
Columns and labels:
platelet aggregation [1] = test: Inhibition of platelet aggregation in Guinea pig (ADP-induced, platelet-rich plasma); assay type: cell-based, male guinea pig; settings: Cavia porcellus, guinea pig PRP, ADP final concentration 5 μM, 37° C.
Protocol: 1. Inhibition of platelet aggregation in Guinea pig
Blood of male guinea pig was collected with an injection syringe which contains 3.8% sodium citrate as an anticoagulant in a ratio of 1 volume to 9 volumes of the blood. Successively, the collected blood mixture was subjected to centrifugation at 120×g for 15 minutes at room temperature to obtain platelet-rich plasma (PRP). The residual blood after separating PRP was further subjected to centrifugation at 1,200×g for 15 minutes to obtain platelet-poor plasma (PPP). Numbers of the platelet in PRP were measured with an automatic platelet counter: Sysmex PL-100 (manufactured by Toa Iyodensi Co.) and PRP was diluted with PPP so as to adjust a platelet concentration to be about 300,000 particles/μ 1. Platelet aggregation was measured by the following procedure with a 6 channel aggregometer: HEMA TRACER 1 (manufactured by NKK Co.).
(§1) After warming 240 μl of PRP at 37° C. for 2 minutes, 30 μl of the solvent of specimen as a control or of the specimen having various concentrations was added to PRP. Further 2 minutes later, 30 μl of adenosine diphosphate (final concentration: 5 μM) was added to induce platelet aggregation. An inhibition percentage was obtained by comparing the maximum aggregation rate of the specimen drug group with that of control. […]

platelet aggregation [2] = test: Inhibition of platelet aggregation in human (ADP-induced, platelet-rich plasma); assay type: cell-based; settings: human PRP, ADP final concentration 5 μM, 37° C.
Protocol: 2. Inhibition of platelet aggregation in human
Blood was collected from healthy human volunteers with an injection syringe and mixed one volume of 3.8% sodium citrate as an anticoagulant to 9 volumes of the blood. Successively, the obtained blood mixture was subjected to centrifugation at 120×g for 15 minutes at room temperature to obtain platelet-rich plasma (PRP). The residual blood after separating the PRP was further subjected to centrifugation at 1,200×g for 20 minutes to obtain platelet-poor plasma (PPP). Numbers of the platelet were measured with an automatic platelet counter: Sysmex PL-100 (manufactured by Toa Iyodensi Co.) and PRP was diluted with PPP so as to adjust a platelet concentration to be about 250,000 particles/μl. Platelet aggregation was measured by the following procedure with a 6 channel aggregometer: HEMA TRACER 1 (manufactured by NKK Co.)
as §1, with “or” for “or of”

SMILES	IC50 (platelet aggregation [1]) [nM]	IC50 (platelet aggregation [2]) [nM]
CCOC(=O)CC1CCc2ccc(C(=O)Nc3ccc(C(=N)N)cc3)cc2C1 (stereo not shown) [Compound No. 11, ethyl 7-[N-(4-amidinophenyl)carbamoyl]-1,2,3,4-tetrahydronaphthalene-2-acetate]	340	
N=C(N)c1ccc(COc2ccc3c(c2)CC(CC(=O)O)CO3)cc1 (stereo not shown) [Compound No. 89, 6-[(4-amidinobenzyl)oxy]chroman-3-acetic acid]	12000	
CCOC(=O)CN1CCc2ccc(C(=O)Nc3ccc(C(=N)N)cc3)cc2C1 [compound 37, ethyl 7-[N-(4-amidinophenyl)carbamoyl]-1,2,3,4-tetrahydroisoquinoline-2-acetate]	4300	
N=C(N)c1ccc(C(=O)Nc2ccc3c(c2)C(=O)N(CC(=O)O)CC3)cc1 [Comparative compound, 7-[(4-amidinobenzoyl)amino]-l-oxo-3,4-dihydroisoquinolone-2-acetic acid hydrochloride, reference compound]	> 100000	3900
N=C(N)c1ccc(CNc2ccc3c(c2)CC(CC(=O)O)CC3)cc1 (stereo not shown) [Compound No. 84, 7-[(4-amidinobenzyl)amino]-1,2,3,4-tetrahydronaphthalene-2-acetic acid]	24000	
N=C(N)Nc1ccc(C(=O)Nc2ccc3c(c2)CC(CC(=O)O)CC3)cc1 (stereo not shown) [Compound No. 93, 7-[(4-guanidinobenzoyl)amino]-1,2,3,4-tetrahydronaphthalene-2-acetic acid]	27000	
COC(=O)CC1CCc2ccc(OCc3ccc(C(=N)N)cc3)cc2C1 (stereo not shown) [Compound No. 81, methyl 7-[(4-amidinobenzyl)oxy]-1,2,3,4-tetrahydronaphthalene-2-acetate]	22000	
N=C(N)c1ccc(NC(=O)c2ccc3c(c2)CC(CC(=O)O)CC3)cc1 (stereo not shown) [Compound No. 9, 7-[N-(4-amidinophenyl)carbamoyl]-1,2,3,4-tetrahydronaphthalene-2-acetic acid]	230	46
N=C(N)c1ccc(OCc2ccc3c(c2)CC(CC(=O)O)CC3)cc1 (stereo not shown) [Compound No. 82, 7-[(4-amidinophenoxy)methyl]-1,2,3,4-tetrahydronaphthalene-2-acetic acid]	39000	
N=C(N)c1ccc(COc2ccc3c(c2)C=C(CC(=O)O)CC3)cc1 [Compound No. 91, 7-[(4-amidinobenzyl)oxy]-3,4-dihydronaphthalene-2-acetic acid]	41000	
CCOC(=O)CC1COc2ccc(OCc3ccc(C(=N)N)cc3)cc2C1 (stereo not shown) [Compound No. 90, ethyl 6-[(4-amidinobenzyl)oxy]chroman-3-acetate]	17000	
CN(C(=O)c1ccc2c(c1)CC(CC(=O)O)CC2)c1ccc(C(=N)N)cc1 (stereo not shown) [Compound No. 56, 7-[N-(4-amidinophenyl)-N-methylcarbamoyl]-1,2,3,4-tetrahydronaphthalene-2-acetic acid]	340	115
N=C(N)c1ccc(COc2ccc3c(c2)CC(CC(=O)O)CC3)cc1 (stereo not shown) [Compound No. 80, 7-[(4-amidinobenzyl)oxy]-1,2,3,4-tetrahydronaphthalene-2-acetic acid]		1500
CN(C(=O)c1ccc(C(=N)N)cc1)c1ccc2c(c1)CC(CC(=O)O)CC2 (stereo not shown) [Compound No. 47, 7-[N-(4-amidinobenzoyl)-N-methylamino]-1,2,3,4-tetrahydronaphthalene-2-acetic acid]	1770	194
N=C(N)c1ccc(C(=O)Nc2ccc3c(c2)CC(CC(=O)O)CC3)cc1 (stereo not shown) [Compound No. 1, 7-[(4-amidinobenzoyl)amino]-1,2,3,4-tetrahydronaphthalene-2-acetic acid]	370	57
N=C(N)c1ccc(C(=O)Nc2ccc3c(c2)CN(CC(=O)O)CC3)cc1 [Compound No. 28, 7-[(4-amidinobenzoyl)amino]-1,2,3,4-tetrahydroisoquinoline-2-acetic acid]	6600	293
NCc1ccc(C(=O)Nc2ccc3c(c2)CC(CC(=O)O)CC3)cc1 (stereo not shown) [Compound No. 123, 7-[(4-aminomethylbenzoyl)amino]-1,2,3,4-tetrahydronaphthalene-2-acetic acid]	14000	
CCOC(=O)CC1CCc2ccc(NC(=O)c3ccc(C(=N)N)cc3)cc2C1 (stereo not shown) [Compound No. 3, ethyl 7-[(4-amidinobenzoyl)amino]-1,2,3,4-tetrahydronaphthalene-2-acetate]	400	
N=C(N)c1ccc(C(=O)Nc2ccc3c(c2)CC(CC(=O)O)CO3)cc1 (stereo not shown) [Compound No. 17, 6-[(4-amidinobenzoyl)amino]chroman-3-acetic acid]		49
